US20230080270A1, “NANOPARTICLES ENCAPSULATING SMALL MOLECULES” (ETH ZURICH, priority 2020, published 2023)
Values joined by “and” are separate entries in the source; they are usually repeats but may differ in a detail not shown here. Identical values can stand only once.

How the values were obtained:
[1] = tested on: HeLa cells; experiment: Flow cytometry of cellular uptake in HeLa cells; format: cell-based, human; conditions: 500 nM Nile Red, population gating based on the PBS control
Protocol: (§1) Cell culture. HeLa cells were maintained in Dulbecco's Modified Eagle Medium (high glucose) supplemented with 10% fetal bovine serum (FBS), 2 mM L-glutamine, 2 mM GlutaMAX and 1 μg/mL gentamicin. Cells were cultured in 5% CO2 at 37° C. and typically split in a 1:4 ratio every 3 days. Only passage numbers between 7-20 were used for all experiments.
Flow cytometry. HeLa cells were seeded at a density of 30,000 cells per well in a 24-well plate in 500 μL of culture medium and allowed to recover at 37° C. and 5% CO2 for 24 hours to reach 60-80% confluency. Both OP protein and surfactant solutions were sterilized by filtration through a 0.22 μm membrane, and stocks were prepared in sterile PBS. Nile Red solution (50 μM) in 1:1 EtOH:H2O was used without sterilization. OP capsid-micelle complexes were prepared as described above. For each well 20 μL of sample in PBS was added to 200 μL of culture media to give the final concentration of 200 nM. Cells were incubated for 16-20 h in 5% CO2 at 37° C. before washing with PBS and trypsinization (0.05% Trypsin-EDTA (Thermo Fisher Scientific, USA), 4 minutes at 37° C.). Cells were collected in cold culture medium and washed twice with cold PBS before resuspension in flow cytometry buffer (PBS with 5% FBS).

[2] = cited from earlier work
[3] = tested on: HeLa cells; experiment: Cell viability assay (WST-8-based Cell Counting Kit-8); design: species or system human; conditions: 2.5 μM lapatinib, 18 hour incubation
Protocol: as §1
Cell viability assay. Cytotoxicity was assessed using the WST-8-based Cell Counting Kit-8 from Sigma according to the manufacturer's instructions. HeLa cells were seeded at a density of 5,000 cells per well in a 96-well plate in 100 μL of culture medium and allowed to recover at 37° C. and 5% CO2 for 24 hours. Protein, surfactant and drug samples were prepared by serial dilution in sterile PBS. As a negative control 10 μL of 10% Triton X-100 in PBS were used per well. The positive control was just PBS. […] The plate was then incubated for 2-4 hours at 37° C. and 5% CO2 before measuring absorbance at 450 nm. The absorbance of CKK-8 in culture media, without cells, was used for background subtraction and samples were normalized to untreated cells to provide the values shown in FIG. 4e,f. Samples were measured in sextuplicate with biological replicates of different protein batches.

[4] = in PBS buffer; cited from earlier work
[5] = Nile Red fluorescence titration (surfactant content and cargo capacity); format: physicochemical; conditions: two equivalents of Nile Red, increasing SDS content
Protocol: Nile Red fluorescence. For a typical fluorimetry experiment, 800 μL samples in PBS buffer were used. For the surfactant loading kinetics the ionic strength was adjusted by dissolving appropriate amounts of NaCl in PBS buffer. Stock solutions of Nile Red in acetone:water (1:1 v/v), or DMSO at concentrations of 50-500 μM were used. The excitation wavelength was set to 535 nm for all experiments.
This number fits with a value of —730 calculated from the volumetric capacity of the OP cavity (˜256 nm^3) and the average volume occupied by an SDS molecule in a micelle (Methods section).
As cargo-carrying is an important characteristic of the protein-micelle complex, the inventors also used fluorescence titration to determine the number of Nile Red molecules that could be accommodated per cage. Single equivalents of Nile Red were added stepwise to a solution of OP:SDS complexes and the fluorescence spectra measured for each addition (FIG. 3d). Between 1-5 molecules of Nile Red per cage, a logarithmic increase in fluorescence emission is observed with each equivalent. From 5-20 molecules of Nile Red a steady decrease in fluorescence is observed, and above 20 a steady increase in fluorescence is observed. We attribute these three distinct stages to: i) Nile Red encapsulation, ii) self-quenching and iii) excess free dye. […]

[6] = Native agarose gel electrophoresis of OP with increasing SDS equivalents; format: physicochemical; conditions: up to 2000 SDS molecules per cage
Text: Native agarose gel electrophoresis.
Cage-templated micelle formation. Sodium dodecyl sulfate (SDS) was chosen as the anionic surfactant (FIG. 2a), due to its aqueous solubility and the potential for favourable hydrogen bond formation between the sulfate headgroup and the many arginine residues on the interior surface of the OP capsid. As SDS is typically used as a protein denaturant, the inventors were curious if charge and shape complementarity of the OP cage could be leveraged to drive formation of a scaffolded micelle, rather than allowing hydrophobic interactions with the protein core to dominate, a pathway that leads to disruption of protein structure. As such, OP was subject to increasing molar equivalents of SDS, up to 2000 molecules per cage, and analyzed by native gel electrophoresis (FIG. 2b).

[7] = Effective concentration / volumetric capacity calculations; conditions: OP cavity ~256 nm^3; SDS micelle radius 17.5 Å, aggregation number 64
Text: Effective concentration calculations. The volume of the OP lumenal cavity (255,528 A) was estimated as a sphere with a radius of 39.4 A. This radius determined by averaging the distances between lumenally exposed residues from the reported crystal structure (Edwardson et al., 2018, op. cit.), using the UCSF Chimera software (Pettersen, E. F. et al. UCSF Chimera—a visualization system for exploratory research and analysis. J. Comput. Chem. 25, 1605-1612 (2004)). The effective concentration of SDS was simply estimated as the number of moles SDS per lumenal cavity volume. The expected number of SDS molecules was estimated by first determining the volume occupied by an individual SDS molecule in a micelle, from the reported average values of SDS micelle radius (17.5 Å) and aggregation number (n=64). Division of the OP cavity volume by the average volume of a single SDS molecule packed into micellar aggregates gives an estimated value of 729 molecules per OP cage, which is within error of the volume estimations and experimental results, which approximate 800 molecules.

## CCN(CC)c1ccc2nc3c4ccccc4c(=O)cc-3oc2c1 [Nile Red]
[1]
  fraction of cells Nile Red positive: 58%
[2]
  solubility limit in organic solvents: < 5 mM

## CS(=O)(=O)CCNCc1ccc(-c2ccc3ncnc(Nc4ccc(OCc5cccc(F)c5)c(Cl)c4)c3c2)o1 [lapatinib]
[3]
  effect on cell viability: negligible effect

## CCCCCCCCCCCCOS(=O)(=O)[O-].[Na+] [SDS, Sodium dodecyl sulfate]
[4]
  critical micelle concentration: 4 to 5 mM

B1: OP: 24-mer octahedral porous protein cage with positively charged interior, polypeptide SEQ ID NO: 2 (protein)
chain: MSQAIGILELRSIAAGMELGDAMLKSANVDLLVSKTISRGKFLLMLGGDIGAIQQAIETGTSQAGRLLVDSLVLANIHPSVLPAISGLNSVDKRQAVGIVETRSVAACISAADRAVKGSNVTLVRVHMARGIGGKCYMVVAGDVSDVALAVTVASSSAGAYGRLVYASLIPRPHEAMWRQMVEGLEHHHHHH
modifications: 24-mer cage assembly
[5]
  surfactant molecules per cage at plateau of Nile Red fluorescence: ~800 molecules per cage
[6]
  SDS equivalents per protein cage up to which no change to quaternary structure: approximately 800 equivalents of SDS per protein cage
[7]
  SDS molecules per OP cage calculated from cavity volume and volume of an SDS molecule in a micelle: 729 molecules per OP cage and 730 molecules per OP cage
